Laboratory results reported in ChEMBL document CHEMBL1123299, “New antiarrhythmic agents. 2,2,5,5-Tetramethyl-3-pyrroline-3-carboxamides and 2,2,5,5-tetramethylpyrrolidine-3-carboxamindes” (J Med Chem, 1986).

Legend:
[1] = test system: Rattus norvegicus; assay: Incidence of arrhythmias in rats after a intravenal administration at 4 mg/kg, expressed as no. of positive cases out of no. of tested cases (10); assay type: functional
[2] = Acute toxicity determined after intravenal administration in mice; assay type: organism-based; conditions: mouse, in vivo, iv
[3] = species: Rattus norvegicus; assay: Relative potency with reference to quinidine; assay type: functional
[4] = test system: Rattus norvegicus; assay: Effective dose against aconitine-induced arrhythmia after intravenal administration in anesthetized rats; assay type: functional

SMILES	No. of positive cases [1]	LD50 [2] [mg/kg]	Relative potency [3]	ED150 [4] [mg/kg]
Cc1cccc(C)c1NC(=O)C(C)NCCNC(=O)C1=CC(C)(C)NC1(C)C (centres undefined)	4	39	–	–
CC1(C)C=C(C(=O)NCC(O)CNC(=O)c2cccs2)C(C)(C)N1 (centres undefined)	7	65	1.77	6.7
CC1(C)C=C(C(=O)NCCNCc2ccccc2O)C(C)(C)N1	10	30	11.9	1
CC1(C)C=C(C(=O)NCCCNCc2ccc[nH]2)C(C)(C)N1	4	20	–	–
CC1(C)C=C(C(=O)NCCCNCc2ccccc2)C(C)(C)N1	9	–	3.3	–
CC1(C)C=C(C(=O)NCCCNCc2cccc(O)c2)C(C)(C)N1	4	17	–	–
CC1(C)C=C(C(=O)NCCNC(=O)C2CC=CCC2C(=O)O)C(C)(C)N1 (centres undefined)	0	1510	–	–
CC1(C)C=C(C(=O)NCCCNCc2ccncc2)C(C)(C)N1	0	94	–	–
COc1cc(CNCCNC(=O)C2=CC(C)(C)NC2(C)C)cc(OC)c1OC	2	56	–	–
Cc1cc(Cl)ccc1OCC(=O)NCCCNC(=O)C1=CC(C)(C)NC1(C)C	3	30	–	–
C/C=C/c1ccc(OC(C)C(=O)NCCCNC(=O)C2=CC(C)(C)NC2(C)C)c(OC)c1 (centres undefined)	7	14	4.4	–
CC1(C)C=C(C(=O)NCCCNCc2ccc(C(F)(F)F)cc2)C(C)(C)N1	7	65	2.5	4.8
COc1cc(C(=O)NCCCNC(=O)C2=CC(C)(C)NC2(C)C)cc(OC)c1OC	5	–	0.97	–
COc1ccc(CNC(=O)C2=CC(C)(C)NC2(C)C)cc1	0	66	–	–
Cc1nc2ccccc2c(=O)n1CCCNC(=O)C1=CC(C)(C)NC1(C)C	10	–	2.6	–
CC1(C)CC(C(=O)NCCCNCc2ccsc2)C(C)(C)N1 (centres undefined)	7	–	0.9	–
CC1(C)C=C(C(=O)NCc2ccc(Cl)cc2)C(C)(C)N1	0	49	–	–
COc1ccc(CCNC(=O)C2=CC(C)(C)NC2(C)C)cc1OC	0	123	–	–
CC1(C)CC(C(=O)NCCCN2C(=O)c3ccccc3C2=O)C(C)(C)N1 (centres undefined)	10	–	2.6	–
CC1(C)C=C(C(=O)NCCCNCc2ccccc2O)C(C)(C)N1	7	28	2.5	4.7
CC1(C)CC(C(=O)NCCCNCc2cccs2)C(C)(C)N1 (centres undefined)	10	–	2.8	–
CCc1nc2ccccc2c(=O)n1CCCNC(=O)C1CC(C)(C)NC1(C)C (centres undefined)	10	–	4.4	–
CC1(C)C=C(C(=O)NCCCN2C(=O)C3CC=CCC3C2=O)C(C)(C)N1 (centres undefined)	2	–	–	–
CC1(C)C=C(C(=O)NCCCNC(=O)c2cccs2)C(C)(C)N1	4	48	–	–
CC(CNC(=O)C1=CC(C)(C)NC1(C)C)NCc1cccs1 (centres undefined)	4	68	–	–
Cc1cccc(C)c1NC(=O)C(C)NCCCNC(=O)C1=CC(C)(C)NC1(C)C (centres undefined)	10	26	9.1	1.3

SMILES	No. of positive cases [1]	LD50 [2] [mg/kg]	Relative potency [3]	ED150 [4] [mg/kg]
C=CCOc1ccc(CNCCCNC(=O)C2=CC(C)(C)NC2(C)C)cc1OC	10	21	5.4	2.2
CC1(C)C=C(C(=O)NCCCNC(=O)C(C)(C)Oc2ccc(Cl)cc2)C(C)(C)N1	0	46	–	–
CC1(C)C=C(C(=O)NCCCNC(=O)C(O)c2ccccc2)C(C)(C)N1 (centres undefined)	1	52	–	–
CC1(C)C=C(C(=O)NCCCNCc2ccccn2)C(C)(C)N1	0	102	–	–
CC1(C)C=C(C(=O)NCC(O)CNC(=O)C(C)(C)Oc2ccc(Cl)cc2)C(C)(C)N1 (centres undefined)	0	69	–	–
CC1(C)C=C(C(=O)NCCCNCc2ccsc2)C(C)(C)N1	9	–	2.2	–
CC(NCCNC(=O)C1=CC(C)(C)NC1(C)C)c1cccs1 (centres undefined)	2	53	–	–
CC1(C)C=C(C(=O)NCCNC(=O)C2CCCCC2C(=O)O)C(C)(C)N1 (centres undefined)	0	1130	–	–
CC(=O)Nc1ccc(CNCCNC(=O)C2=CC(C)(C)NC2(C)C)cc1	2	25	–	–
CC1(C)C=C(C(=O)NCCCNC(=O)Cc2cccs2)C(C)(C)N1	8	–	3.8	–
CC1(C)C=C(C(=O)NCCNC(=O)COc2ccc(Cl)cc2Cl)C(C)(C)N1	4	37	–	–
CC1(C)C=C(C(=O)NCCNC(=O)c2cccs2)C(C)(C)N1	3	93	–	–
CC1(C)C=C(C(=O)NCCCCNC(=O)c2cccs2)C(C)(C)N1	6	37	–	–
COc1ccc(CNCCNC(=O)C2=CC(C)(C)NC2(C)C)cc1OC	2	61	–	–
CC1(C)C=C(C(=O)NCCCN2C(=O)C3CCCCC3C2=O)C(C)(C)N1 (centres undefined)	0	106	–	–
CC1(C)C=C(C(=O)NCC(C)(C)NCc2cccs2)C(C)(C)N1	1	49	–	–
CC1(C)C=C(C(=O)NCc2ccncc2)C(C)(C)N1	0	132	–	–
CC1(C)C=C(C(=O)NCCN2C(=O)C3CCCCC3C2=O)C(C)(C)N1 (centres undefined)	0	128	–	–
CC1(C)C=C(C(=O)NCCNC(=O)c2ccccn2)C(C)(C)N1	2	88	–	–
CCc1nc2ccccc2c(=O)n1CCNC(=O)C1=CC(C)(C)NC1(C)C	10	–	1.1	–
Cc1nc2ccccc2c(=O)n1CCNC(=O)C1=CC(C)(C)NC1(C)C	4	–	–	–
CC1(C)C=C(C(=O)NCCNC(=O)C(O)c2ccccc2)C(C)(C)N1 (centres undefined)	0	85	–	–
CC1(C)C=C(C(=O)NCCNC(=O)Cc2cccs2)C(C)(C)N1	2	86	–	–
CC1(C)C=C(C(=O)NCCCNC(=O)c2ccccc2C(=O)O)C(C)(C)N1	0	–	–	–
CC1(C)C=C(C(=O)NCCCNC(=O)COc2ccc(Cl)cc2Cl)C(C)(C)N1	5	20	–	–
CN(Cc1ccccc1)C(=O)C1=CC(C)(C)NC1(C)C	1	51	–	–

SMILES	No. of positive cases [1]	LD50 [2] [mg/kg]	Relative potency [3]	ED150 [4] [mg/kg]
CC1(C)C=C(C(=O)NCCNCc2cccs2)C(C)(C)N1	3	123	–	–
CC1(C)C=C(C(=O)NCCCNC(=O)C2CC=CCC2C(=O)O)C(C)(C)N1 (centres undefined)	0	344	–	–
CC1(C)C=C(C(=O)NCCNC(=O)C(C)(C)Oc2ccc(Cl)cc2)C(C)(C)N1	0	47	–	–
CC1(C)C=C(C(=O)NCCNC(=O)c2ccc3c(c2)OCO3)C(C)(C)N1	2	95	–	–
CC1(C)C=C(C(=O)NCCCNC(=O)Cc2ccccc2)C(C)(C)N1	6	54	–	–
CC1(C)C=C(C(=O)NC(c2ccccc2)c2ccccc2)C(C)(C)N1	5	63	–	–
CC(=O)Nc1ccc(CNCCCNC(=O)C2=CC(C)(C)NC2(C)C)cc1	2	23	–	–
CC1(C)C=C(C(=O)NC(C(N)=O)c2ccccc2)C(C)(C)N1 (centres undefined)	2	75	–	–
Cc1cc(Cl)ccc1OCC(=O)NCCNC(=O)C1=CC(C)(C)NC1(C)C	2	36	–	–
CC1(C)C=C(C(=O)NCCCNCc2ccco2)C(C)(C)N1	0	34	–	–
CC1(C)C=C(C(=O)NCc2ccccc2)C(C)(C)N1	3	34	–	–
CC1(C)C=C(C(=O)NCCCNC(=O)CSc2ccccc2)C(C)(C)N1	7	–	1.7	6.9
CC1(C)C=C(C(=O)NCCNC(=O)c2ccccc2C(=O)O)C(C)(C)N1	0	357	–	–
C=CCc1ccc(OCC(=O)NCCCNC(=O)C2CC(C)(C)NC2(C)C)c(OC)c1 (centres undefined)	0	38	–	–
CC1(C)C=C(C(=O)NCCN2C(=O)C3CC=CCC3C2=O)C(C)(C)N1 (centres undefined)	0	182	–	–
CC1(C)CC(C(=O)NCCCNCc2ccc(C(F)(F)F)cc2)C(C)(C)N1 (centres undefined)	9	–	4.1	–
Cc1nc2ccccc2c(=O)n1CCCNC(=O)C1CC(C)(C)NC1(C)C (centres undefined)	3	53	–	–
Cc1nc2ccccc2c(=O)n1CC(O)CNC(=O)C1=CC(C)(C)NC1(C)C (centres undefined)	4	73	–	–
CC1(C)C=C(C(=O)NCCCNC(=O)C2CCCCC2C(=O)O)C(C)(C)N1 (centres undefined)	0	753	–	–
C/C=C/c1ccc(OCC(=O)NCCNC(=O)C2=CC(C)(C)NC2(C)C)c(OC)c1	7	18	2.9	–
CC1(C)C=C(C(=O)NCCCNC(=O)c2ccc3c(c2)OCO3)C(C)(C)N1	4	76	–	–
CC1(C)C=C(C(=O)NCCCCNCc2cccs2)C(C)(C)N1	10	–	2.5	–
CC1(C)C=C(C(=O)NCCN2C(=O)c3ccccc3C2=O)C(C)(C)N1	7	–	1.5	–
CC1(C)C=C(C(=O)NCC(O)CN2C(=O)c3ccccc3C2=O)C(C)(C)N1 (centres undefined)	10	–	3.9	–
